Measurements as given in patent US8043826B2, “Device for monitoring inhibition of platelet function response” (Medical Innovations International, Inc., priority 2005, dated 2011).

Test system: platelets
Test: Assaying platelet aspirin response: luciferin/luciferase light emission (extracellular ATP) in arachidonic-acid-treated diluted whole blood drawn before and after taking aspirin
Type: cell-based, human
Conditions: individuals of FIGS. 2A and 2C; blood drawn after aspirin 325 mg; no-aspirin sample very steep
Method: Volunteers who had not taken aspirin in the previous 24 hours underwent a finger prick to draw blood. Blood (2 μl) was diluted into 1 ml of buffer (PBS, 0.9% NaCl, 10 mM sodium phosphate, pH 7.0) in a clear test tube. An aliquot (15 μl) of luciferin/luciferase solution (containing 10 mg/ml luciferin and 10 μg/ml luciferase) was added to the diluted blood. The solution was mixed and placed in a Zylux FEMPTOMASTER FB12 photon counter. A baseline reading of the light emission was taken. The test tube was then withdrawn, and 5 μl of 15 mM arachidonic acid was added to the solution and the solution was mixed. The test tube was then reinserted in the photon counter and light emission readings were taken for approximately 2 to 4 minutes.
The volunteer then swallowed or chewed an aspirin (325 mg). A blood sample was taken, and the process was repeated. The results from blood drawn from an individual before and after taking aspirin were compared.

## CC(=O)Oc1ccccc1C(=O)O [aspirin]
  slope of light emission vs. time after arachidonic acid is added, aspirin sample: almost flat
